Several values for one entry are separate records, joined by “and”; a condition that tells them apart may be missing. Equal entries are not always repeated. Inconclusive results are not listed.
Test system: BDF1 mice, s.c. Lewis lung carcinoma, T/C %
Assay: NCI In Vivo Anticancer Drug Screen. Data for tumor model Lewis Lung Carcinoma (subcutaneous) in B6D2F1 (BDF1) mice
Settings: endpoint: median survival time, higher = longer survival
How it was run: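 Antitumor effect in vivo is scored from survival or tumor burden, reported as treated relative to vehicle controls.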

O=C(O)CC(NC(=O)CP(=O)(O)O)C(=O)O (stereo unspecified)
T/C (dose: 12.5 mg/kg/injection, schedule: Q01DX009 (ip), vehicle: saline): 120 % of control and 121 % of control | T/C (dose: 17.1 mg/kg/injection, schedule: Q01DX004 (ip), vehicle: saline): 120 % of control | T/C (dose: 18.8 mg/kg/injection, schedule: Q01DX004 (ip), vehicle: saline): 124 % of control | T/C (dose: 23.3 mg/kg/injection, schedule: Q01DX009 (ip), vehicle: saline): 121 % of control | T/C (dose: 25.0 mg/kg/injection, schedule: Q01DX004 (ip), vehicle: saline): 226 % of control | T/C (dose: 34.1 mg/kg/injection, schedule: Q01DX004 (ip), vehicle: saline): 178 % of control | T/C (dose: 37.5 mg/kg/injection, schedule: Q01DX004 (ip), vehicle: saline): 120 % of control | T/C (dose: 38.9 mg/kg/injection, schedule: Q01DX004 (ip), vehicle: saline): 123 % of control | T/C (dose: 38.9 mg/kg/injection, schedule: Q01DX009 (oral), vehicle: saline): 100 % of control | T/C (dose: 50.0 mg/kg/injection, schedule: Q01DX004 (ip), vehicle: saline): 225 % of control | T/C (dose: 50.0 mg/kg/injection, schedule: Q01DX005 (ip), vehicle: saline): 95 % of control | T/C (dose: 64.0 mg/kg/injection, schedule: Q01DX004 (ip), vehicle: saline): 108 % of control | T/C (dose: 64.8 mg/kg/injection, schedule: Q01DX004 (ip), vehicle: saline): 175 % of control and 197 % of control | T/C (dose: 64.8 mg/kg/injection, schedule: Q01DX009 (ip), vehicle: saline): 167 % of control | T/C (dose: 64.8 mg/kg/injection, schedule: Q01DX009 (oral), vehicle: saline): 103 % of control | T/C (dose: 68.3 mg/kg/injection, schedule: Q01DX004 (ip), vehicle: saline): 247 % of control | T/C (dose: 68.3 mg/kg/injection, schedule: Q01DX004 (ip), vehicle: suspension in saline): 112 % of control | T/C (dose: 70.0 mg/kg/injection, schedule: Q01DX009 (oral), vehicle: saline): 122 % of control | T/C (dose: 75.0 mg/kg/injection, schedule: Q01DX004 (ip), vehicle: saline): 247 % of control | T/C (dose: 100.0 mg/kg/injection, schedule: Q01DX004 (ip), vehicle: saline): 226 % of control | T/C (dose: 108.0 mg/kg/injection, schedule: Q01DX004 (ip), vehicle: saline): 197 % of control and 299 % of control | T/C (dose: 108.0 mg/kg/injection, schedule: Q01DX009 (ip), vehicle: saline): 222 % of control | T/C (dose: 108.0 mg/kg/injection, schedule: Q01DX009 (oral), vehicle: saline): 107 % of control | T/C (dose: 108.0 mg/kg/injection, schedule: Q04DX004 (ip), vehicle: saline): 118 % of control | T/C (dose: 110.0 mg/kg/injection, schedule: Q01DX009 (oral), vehicle: saline): 122 % of control | T/C (dose: 116.0 mg/kg/injection, schedule: Q01DX009 (ip), vehicle: saline): 181 % of control | T/C (dose: 125.0 mg/kg/injection, schedule: Q01DX009 (ip), vehicle: saline): 176 % of control and 194 % of control | T/C (dose: 133.0 mg/kg/injection, schedule: Q01DX007 (other), vehicle: saline): 206 % of control | T/C (dose: 133.0 mg/kg/injection, schedule: Q01DX007 (sc), vehicle: saline): 206 % of control | T/C (dose: 136.0 mg/kg/injection, schedule: Q01DX004 (ip), vehicle: suspension in saline): 204 % of control | T/C (dose: 136.5 mg/kg/injection, schedule: Q01DX004 (ip), vehicle: saline): 248 % of control | T/C (dose: 140.0 mg/kg/injection, schedule: Q01DX009 (ip), vehicle: saline): 166 % of control | T/C (dose: 150.0 mg/kg/injection, schedule: Q01DX004 (ip), vehicle: saline): 248 % of control | T/C (dose: 150.0 mg/kg/injection, schedule: Q01DX009 (ip), vehicle: saline): 186 % of control | T/C (dose: 160.0 mg/kg/injection, schedule: Q01DX009 (oral), vehicle: saline): 119 % of control | T/C (dose: 167.0 mg/kg/injection, schedule: Q01DX010 (ip), vehicle: saline): 152 % of control | T/C (dose: 175.0 mg/kg/injection, schedule: Q01DX009 (ip), vehicle: saline): 163 % of control | T/C (dose: 178.0 mg/kg/injection, schedule: Q01DX009 (ip), vehicle: saline): 178 % of control and 237 % of control | T/C (dose: 180.0 mg/kg/injection, schedule: Q01DX009 (ip), vehicle: saline): 159 % of control and 222 % of control | T/C (dose: 180.0 mg/kg/injection, schedule: Q01DX009 (oral), vehicle: saline): 102 % of control | T/C (dose: 180.0 mg/kg/injection, schedule: Q04DX004 (ip), vehicle: saline): 178 % of control | T/C (dose: 200.0 mg/kg/injection, schedule: Q01DX004 (ip), vehicle: saline): 226 % of control | T/C (dose: 200.0 mg/kg/injection, schedule: Q01DX005 (ip), vehicle: saline): 115 % of control | T/C (dose: 200.0 mg/kg/injection, schedule: Q01DX007 (other), vehicle: saline): 206 % of control | T/C (dose: 200.0 mg/kg/injection, schedule: Q01DX007 (sc), vehicle: saline): 206 % of control | T/C (dose: 200.0 mg/kg/injection, schedule: Q01DX009 (ip), vehicle: saline): 225 % of control | T/C (dose: 240.0 mg/kg/injection, schedule: Q04DX003 (ip), vehicle: saline): 150 % of control | T/C (dose: 250.0 mg/kg/injection, schedule: Q01DX010 (ip), vehicle: saline): 158 % of control | T/C (dose: 265.0 mg/kg/injection, schedule: Q01DX009 (ip), vehicle: saline): 195 % of control | T/C (dose: 273.0 mg/kg/injection, schedule: Q01DX004 (ip), vehicle: saline): 195 % of control | T/C (dose: 273.0 mg/kg/injection, schedule: Q01DX004 (ip), vehicle: suspension in saline): 177 % of control | T/C (dose: 300.0 mg/kg/injection, schedule: Q01DX007 (sc), vehicle: saline): 198 % of control | T/C (dose: 300.0 mg/kg/injection, schedule: Q04DX004 (ip), vehicle: saline): 169 % of control | T/C (dose: 343.0 mg/kg/injection, schedule: Q04DX003 (ip), vehicle: saline): 153 % of control and 186 % of control (2×) | T/C (dose: 375.0 mg/kg/injection, schedule: Q01DX010 (ip), vehicle: saline): 95 % of control | T/C (dose: 400.0 mg/kg/injection, schedule: Q01DX004 (ip), vehicle: saline): 224 % of control | T/C (dose: 490.0 mg/kg/injection, schedule: Q04DX003 (ip), vehicle: saline): 150 % of control and 186 % of control and 193 % of control | T/C (dose: 500.0 mg/kg/injection, schedule: Q04DX004 (ip), vehicle: saline): 176 % of control | T/C (dose: 833.0 mg/kg/injection, schedule: Q04DX004 (ip), vehicle: saline): 64 % of control | T/C (dose: 50.0 ml/mouse/injection, schedule: Q01DX005 (ip), vehicle: saline): 94 % of control | T/C (dose: 200.0 ml/mouse/injection, schedule: Q01DX005 (ip), vehicle: saline): 117 % of control

Reference: PubChem BioAssay AID270 (DTP/NCI, 2004)
